Tests used:
[1] = target: T1, Thyroid hormone receptor alpha (Homo sapiens, UniProt P10827); experiment: Binding affinity towards thyroid hormone receptor (hTR alpha 1)
T1 sequence (P10827 whole entry): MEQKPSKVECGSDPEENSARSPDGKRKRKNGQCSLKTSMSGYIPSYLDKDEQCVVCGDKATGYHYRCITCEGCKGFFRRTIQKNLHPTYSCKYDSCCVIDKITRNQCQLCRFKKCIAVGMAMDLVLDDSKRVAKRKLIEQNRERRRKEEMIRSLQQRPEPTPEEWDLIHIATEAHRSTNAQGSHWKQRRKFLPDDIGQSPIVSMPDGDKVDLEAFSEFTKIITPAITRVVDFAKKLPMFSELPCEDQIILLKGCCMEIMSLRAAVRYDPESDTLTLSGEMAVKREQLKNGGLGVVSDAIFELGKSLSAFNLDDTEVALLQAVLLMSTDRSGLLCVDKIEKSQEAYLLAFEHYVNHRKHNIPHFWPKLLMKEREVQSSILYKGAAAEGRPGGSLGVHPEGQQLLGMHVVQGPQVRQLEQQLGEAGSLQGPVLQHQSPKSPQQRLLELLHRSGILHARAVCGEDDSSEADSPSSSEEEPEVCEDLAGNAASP

[2] = target: T2, Thyroid hormone receptor beta (Homo sapiens, UniProt P10828); experiment: Binding affinity towards thyroid hormone receptor (hTR beta 1)
T2 sequence (P10828 whole entry): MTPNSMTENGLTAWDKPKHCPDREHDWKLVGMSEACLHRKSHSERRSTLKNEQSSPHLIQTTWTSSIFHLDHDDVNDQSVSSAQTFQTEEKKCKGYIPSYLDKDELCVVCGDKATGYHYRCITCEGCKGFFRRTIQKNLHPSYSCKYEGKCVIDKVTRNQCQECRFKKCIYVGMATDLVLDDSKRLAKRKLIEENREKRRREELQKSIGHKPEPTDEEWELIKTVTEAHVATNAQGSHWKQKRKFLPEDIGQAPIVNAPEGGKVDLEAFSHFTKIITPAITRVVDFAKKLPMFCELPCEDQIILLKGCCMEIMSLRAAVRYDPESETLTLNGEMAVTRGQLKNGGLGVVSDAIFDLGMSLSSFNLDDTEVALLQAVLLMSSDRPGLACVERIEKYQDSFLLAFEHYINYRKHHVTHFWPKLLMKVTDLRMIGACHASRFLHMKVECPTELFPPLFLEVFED

Row | SMILES | Kd [1] [nM] | Kd [2] [nM]
1 | CCCCN(C)C(=O)CCCCCC/C=C\CCC(c1ccc(O)c(C(C)C)c1)c1c(C)cc(OCC(=O)O)cc1C (stereo not given) | 240 | 720
2 | CCCCN(C)C(=O)CCCCCCCCCCC(c1ccc(O)c(C(C)C)c1)c1c(C)cc(OCC(=O)O)cc1C (stereo not given) | 112 | 148
3 | COc1ccc(C(c2ccc(O)c(C(C)C)c2)c2c(C)cc(OCC(=O)O)cc2C)c(OC)c1 (stereo not given) | 1400 | 4200
4 | C=CCC(c1ccc(O)c(C(C)C)c1)c1c(C)cc(OCC(=O)O)cc1C (stereo not given) | 430 | 90
5 | Cc1cc(OCC(=O)O)cc(C)c1C(CCCO)c1ccc(O)c(C(C)C)c1 (stereo not given) | 1400 | 3600

Source: ChEMBL document CHEMBL1134818, “A designed antagonist of the thyroid hormone receptor” (Bioorg Med Chem Lett, 2001)
